Measurements taken from patent US20080026417A1, “ASSAYS FOR TRICHOMONAL AND OTHER HYDROLASES” (priority 2002, published 2008).
Ends that are not written are not given here. Peptide text beside a SMILES is read from it. * marks the point of attachment. AMC = Cc1cc(=O)oc2cc(N*)ccc12; Cbz = O=C(OCc1ccccc1)*; Boc = CC(C)(C)OC(=O)*

How the values were obtained:
[1] = system: hydrolases present in whole normal vaginal fluid; assay: Experiment 2: hydrolysis of substrates by whole normal vaginal fluid, visual color score; type: biochemical, human; parameters: key: 0: Yellow; 1: Peach; 2: Orange; 3: Light to medium pink; 4: Dark pink or red; 5: Fuchsia; 6: Purple; conditions: visual 0-6 scale
Experimental: Due to the partial opacity of cells and other particulate matter in whole vaginal fluid, assays of hydrolase activity present in whole vaginal fluid were performed in 20 μL conical microwells and scored visually. The vaginal fluid from a single normal, uninfected donor was agitated to resuspend the particulate matter, and 2 μL aliquots of the vaginal fluid were mixed with 2 μL of each substrate/buffer combination. To retard evaporation from the wells, water was pipetted into the mini-tray adjacent to the wells prior to replacing the tray cover. Fifteen minutes later, 2 μL of indicator solution was added to each well. After another fifteen minutes, the color in each well was visually scored in 0.5-unit increments using the 0-6 scale presented in Table 2.1.

[2] = system: trichomonal hydrolases; assay: Experiment 2: hydrolysis of substrates by trichomonal hydrolases with or without NVS, absorbance 540 nm; type: biochemical, Trichomonas vaginalis; conditions: absorbance at 540 nm per method; for Color Scores: Trichomonal hydrolases + NVS: 10% NVS
Experimental: Substrate solutions containing 8 mM of one of the four substrates (ZRR-MNA, BLRR-AMC, BLKR-AMC, ZKKR-AMC) in one of the two buffers (acetate, TRIS) were prepared by mixing 4 μL 100 mM substrate with 6 μL 6.3 mM L-cysteine, 14 μL 200 mM buffer and 26 μL water. Assays of trichomonal hydrolase activity, with or without the addition of NVS, were performed in 200 μL microwells. In one set of microwells, 10 μL of each substrate/buffer combination was mixed with 10 μL of undiluted trichomonal hydrolases. In a second set of microwells, 10 μL of each substrate/buffer combination was mixed with 10 μL of a mixture of 90% v/v trichomonal hydrolases and 10% NVS. Fifteen minutes later, 50 μL of indicator solution was added to each well. After another fifteen minutes, the absorbance of each solution in the wells was measured on a microtiter plate reader set on 540 nm wavelength.

[3] = system: trichomonal hydrolases; assay: Experiment 13: hydrolysis of peptide substrates by trichomonal hydrolases at low pH in vaginal fluid supernatant; type: biochemical, Trichomonas vaginalis; parameters: key: −: No red color produced; +: Clearly visible red color produced; ++: Moderately intense red color produced; +++: Very intense red color produced; conditions: Fast Garnet
Experimental: (§1) Forty μL of each substrate was pipetted into duplicate wells of a microtiter plate. The plate was covered with tape, placed into a 25° C. incubator, and allowed to warm. A diluted enzyme mixture was prepared by mixing one part (v/v) freshly-thawed trichomonal hydrolase solution to nine parts 2 mM L-cysteine solution. Forty μL of this mixture was added to one well of each pair of duplicate wells. For negative controls, 40 μL of 2 mM L-cysteine was added to the second well in each pair of duplicate wells. The plate was returned to the incubator and incubated for ten minutes. Forty μL of SDS/acetate solution was added to each well, followed by 40 μL of Fast Garnet solution. The intensity of color that developed in each well after five minutes was visually scored using the color scale presented in Table 13.1.
Of the nine substrates hydrolyzed by trichomonal hydrolases to produce an intense pink color (scoring ++ or +++) in the absence of vaginal fluid supernatant, only four produced intense pink color when vaginal fluid supernatant was present.

[4] = system: trichomonal hydrolases; assay: Experiment 1: hydrolysis of substrates by trichomonal hydrolases at pH 2.8-9.2, with or without normal vaginal fluid supernatant (NVS), absorbance 540 nm; type: biochemical, Trichomonas vaginalis; conditions: for Absorbance Readings: 540 nm
Experimental: Assays without normal vaginal fluid supernatant present: Two sets of six wells in a microtiter plate were prepared, with each well containing 80 μL of one of the six 200 mM buffers, 10 μL of water and 10 μL of diluted trichomonal hydrolases. Ten μL of ZRR-MNA was added to each well in the first set of wells, and 10 μl of VLK-MNA was added to each well in the second set of wells. After fifteen minutes, 100 μl of indicator solution was added to each well. Because a high pH can reduce the intensity of color produced by the indicator solution, 50 μl of 100 mM acetic acid buffer, pH 3.7, was added to each well except the pH 2.8 wells (water was substituted for the acetic acid in those wells). After another fifteen minutes, the absorbance of the solutions in the wells was measured on a microtiter plate reader set on 540 nm wavelength.
Assays with normal vaginal fluid supernatant (NVS) present: The procedure of the preceding paragraph was followed, except that 10 μL of diluted NVS was added to the wells in place of the 10 μL of water.

[5] = system: trichomonal hydrolases; assay: Experiment 13: hydrolysis of peptide substrates by trichomonal hydrolases at low pH, no vaginal fluid; type: biochemical, Trichomonas vaginalis; parameters: key: −: No red color produced; +: Clearly visible red color produced; ++: Moderately intense red color produced; +++: Very intense red color produced; conditions: without vaginal fluid; threonine buffer pH 2.4; 2 mM substrate solution; 10 min 25° C.; Fast Garnet
Experimental: as §1

[6] = system: trichomonal hydrolases; assay: Experiment 8: polypeptide inhibition of trichomonal hydrolases; type: biochemical, Trichomonas vaginalis; parameters: key: 0: Yellow; 1: Peach; 2: Orange; 3: Light to medium pink; 4: Dark pink or red; 5: Fuchsia; 6: Purple; conditions: 10 mM polypeptide in substrate solution
Experimental: (§2) The vaginal fluid was extracted from each swab by centrifugation, and then mixed to resuspend the particulate matter. For each donor, 2 μL of vaginal fluid was pipetted into each of ten microwells, then 2 μL of one of the ten substrate/buffer/polypeptide combinations was added to each well. Additionally, 2 μL of trichomonal hydrolases was mixed with 2 μL of each of the substrate/polypeptide combinations in set of ten wells. After fifteen minutes, 2 μL of indicator solution was added to each well.

[7] = system: non-trichomonal hydrolases present in vaginal fluid; assay: Experiment 8: polypeptide inhibition of hydrolases in whole vaginal fluid of uninfected women; type: biochemical, human; parameters: key: 0: Yellow; 1: Peach; 2: Orange; 3: Light to medium pink; 4: Dark pink or red; 5: Fuchsia; 6: Purple; conditions: ZRR-MNA, 10 mM polypeptide in substrate solution
Experimental: as §2

[8] = pH 5, Donor A whole vaginal fluid
[9] = pH 5, Donor B whole vaginal fluid
[10] = pH 5, Donor C whole vaginal fluid
[11] = pH 5, Donor D whole vaginal fluid
[12] = pH 8, Donor A whole vaginal fluid
[13] = pH 8, Donor B whole vaginal fluid
[14] = pH 8, Donor C whole vaginal fluid
[15] = pH 8, Donor D whole vaginal fluid

Compound: Cc1cc(=O)oc2cc(NC(=O)[C@H](CCCN=C(N)N)NC(=O)[C@H](CCCCN)NC(=O)[C@H](CC(C)C)NC(=O)OC(C)(C)C)ccc12 [BLKR-AMC, BOC-Leu-Lys-Arg-AMC] (Boc-Leu-Lys-Arg-{AMC})
- Color Scores: Whole normal vaginal fluid ([1]; pH 5 acetate): 0.5
- Color Scores: Whole normal vaginal fluid ([1]; pH 8 TRIS): 6
- Color Scores: Trichomonal hydrolases + NVS ([2]; pH 5 acetate): 0.123
- Color Scores: Trichomonal hydrolases ([2]; pH 5 acetate): 0.638
- Color Scores: Trichomonal hydrolases + NVS ([2]; pH 8 TRIS): 0.731
- Color Scores: Trichomonal hydrolases ([2]; pH 8 TRIS): 0.649

Compound: Cc1cc(=O)oc2cc(NC(=O)[C@H](CCCN=C(N)N)NC(=O)[C@H](CCCN=C(N)N)NC(=O)[C@H](CC(C)C)NC(=O)OC(C)(C)C)ccc12 [BLRR-AMC, BOC-Leu-Arg-Arg-AMC] (Boc-Leu-Arg-Arg-{AMC})
- Color Scores: Whole normal vaginal fluid ([1]; pH 5 acetate): 0.5
- Color Scores: Whole normal vaginal fluid ([1]; pH 8 TRIS): 6
- Color Scores: Trichomonal hydrolases + NVS ([2]; pH 5 acetate): 0.114
- Color Scores: Trichomonal hydrolases ([2]; pH 5 acetate): 0.536
- Color Scores: Trichomonal hydrolases + NVS ([2]; pH 8 TRIS): 0.568
- Color Scores: Trichomonal hydrolases ([2]; pH 8 TRIS): 0.463

Compound: Cc1cc(=O)oc2cc(NC(=O)[C@H](CCCNC(=N)N)NC(=O)[C@H](CCCCN)NC(=O)[C@H](CCCCN)NC(=O)OCc3ccccc3)ccc12 [ZKKR-AMC, CBZ-Lys-Lys-Arg-AMC] (Cbz-Lys-Lys-Arg-{AMC})
- Color Scores: Whole normal vaginal fluid ([1]; pH 5 acetate): 0.5
- Color Scores: Whole normal vaginal fluid ([1]; pH 8 TRIS): 2
- Color Scores: Trichomonal hydrolases + NVS ([2]; pH 5 acetate): 0.099
- Color Scores: Trichomonal hydrolases ([2]; pH 5 acetate): 0.225
- Color Scores: Trichomonal hydrolases + NVS ([2]; pH 8 TRIS): 0.352
- Color Scores: Trichomonal hydrolases ([2]; pH 8 TRIS): 0.357

Compound: COc1cc(NC(=O)[C@H](CCCN=C(N)N)NC(=O)[C@H](CCCN=C(N)N)NC(=O)OCc2ccccc2)cc2ccccc12 [ZRR-MNA, CBZ-Arg-Arg-MNA]
- Color Score [3]: +
- Color Scores: Whole normal vaginal fluid ([1]; pH 5 acetate): 3
- Color Scores: Whole normal vaginal fluid ([1]; pH 8 TRIS): 4
- color production relative to that observed when vaginal fluid was not present ([4]; pH 8 TRIS buffer, 0.403/0.667): 60%
- Absorbance Readings ([4]; with vaginal fluid supernatant, Acetate pH 5.1): 0.082
- Absorbance Readings ([4]; with vaginal fluid supernatant, Borate pH 9.2): 0.089
- Absorbance Readings ([4]; with vaginal fluid supernatant, Gly-gly pH 2.8): 0.085
- Absorbance Readings ([4]; with vaginal fluid supernatant, HEPES pH 7.5): 0.386
- Absorbance Readings ([4]; with vaginal fluid supernatant, MOPS pH 7.0): 0.313
- Absorbance Readings ([4]; with vaginal fluid supernatant, TRIS pH 8.0): 0.403
- Absorbance Readings ([4]; without vaginal fluid supernatant, Acetate pH 5.1): 0.792
- Absorbance Readings ([4]; without vaginal fluid supernatant, Borate pH 9.2): 0.172
- Absorbance Readings ([4]; without vaginal fluid supernatant, Gly-gly pH 2.8): 0.631
- Absorbance Readings ([4]; without vaginal fluid supernatant, HEPES pH 7.5): 0.738
- Absorbance Readings ([4]; without vaginal fluid supernatant, MOPS pH 7.0): 0.638
- Absorbance Readings ([4]; without vaginal fluid supernatant, TRIS pH 8.0): 0.667
- Color Score [5]: ++
- Color Scores: Trichomonal hydrolases + NVS ([2]; pH 5 acetate): 0.068
- Color Scores: Trichomonal hydrolases ([2]; pH 5 acetate): 0.420
- Color Scores: Trichomonal hydrolases + NVS ([2]; pH 8 TRIS): 0.182
- Color Scores: Trichomonal hydrolases ([2]; pH 8 TRIS): 0.385

Compound: Arg-Lys-Asn-Val-Tyr (RKNVY; printed: Arg-Lys-Asn-Val-Tyr)
- Hydrolase activity color score with polypeptide ([6]; pH 5, ZRR-MNA): 3
- Hydrolase activity color score with polypeptide ([6]; pH 8, ZRR-MNA): 3
- Hydrolase activity color score with polypeptide [7, 8]: 0.5
- Hydrolase activity color score with polypeptide [7, 9]: 0
- Hydrolase activity color score with polypeptide [7, 10]: 0
- Hydrolase activity color score with polypeptide [7, 11]: 0
- Hydrolase activity color score with polypeptide [7, 12]: 0.5
- Hydrolase activity color score with polypeptide [7, 13]: 0.5
- Hydrolase activity color score with polypeptide [7, 14]: 1
- Hydrolase activity color score with polypeptide [7, 15]: 1

Compound: KPQLWP
- Hydrolase activity color score with polypeptide ([6]; pH 5, ZRR-MNA): 3
- Hydrolase activity color score with polypeptide ([6]; pH 8, ZRR-MNA): 3
- Hydrolase activity color score with polypeptide [7, 8]: 0
- Hydrolase activity color score with polypeptide [7, 9]: 0
- Hydrolase activity color score with polypeptide [7, 10]: 0
- Hydrolase activity color score with polypeptide [7, 11]: 0
- Hydrolase activity color score with polypeptide [7, 12]: 0.5
- Hydrolase activity color score with polypeptide [7, 13]: 0.5
- Hydrolase activity color score with polypeptide [7, 14]: 0
- Hydrolase activity color score with polypeptide [7, 15]: 0

Compound: KRQHPG
- Hydrolase activity color score with polypeptide ([6]; pH 5, ZRR-MNA): 3
- Hydrolase activity color score with polypeptide ([6]; pH 8, ZRR-MNA): 3
- Hydrolase activity color score with polypeptide [7, 8]: 2
- Hydrolase activity color score with polypeptide [7, 9]: 2
- Hydrolase activity color score with polypeptide [7, 10]: 0
- Hydrolase activity color score with polypeptide [7, 11]: 2
- Hydrolase activity color score with polypeptide [7, 12]: 2.5
- Hydrolase activity color score with polypeptide [7, 13]: 2
- Hydrolase activity color score with polypeptide [7, 14]: 0.5
- Hydrolase activity color score with polypeptide [7, 15]: 2

Compound: RPKPQFFGLM [Arg-Pro-Lys-Pro-Gln-Phe-Phe-Gly-Leu-Met]
- Hydrolase activity color score with polypeptide ([6]; pH 5, ZRR-MNA): 1
- Hydrolase activity color score with polypeptide ([6]; pH 8, ZRR-MNA): 0.5
- Hydrolase activity color score with polypeptide [7, 8]: 0.5
- Hydrolase activity color score with polypeptide [7, 9]: 1
- Hydrolase activity color score with polypeptide [7, 10]: 0
- Hydrolase activity color score with polypeptide [7, 11]: 0.5
- Hydrolase activity color score with polypeptide [7, 12]: 0.5
- Hydrolase activity color score with polypeptide [7, 13]: 0.5
- Hydrolase activity color score with polypeptide [7, 14]: 0
- Hydrolase activity color score with polypeptide [7, 15]: 0
